# According to the supplement of paper PMC10307832:
# Tests used:
# Test in all cases: relative viability (nuclei count vs DMSO), 5 days (fraction); higher = more cells survive
# BX 795 + Bortezomib = compound: O=C(NCCCNc1nc(Nc2cccc(NC(=O)N3CCCC3)c2)ncc1I)c1cccs1 [BX 795] + CC(C)C[C@H](NC(=O)[C@H](Cc1ccccc1)NC(=O)c1cnccn1)B(O)O [Bortezomib] (partner 0.002 µM)
# Method in brief: (§1)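 Relative viability divides the nuclei count in treated wells by that in vehicle wells. Lung cancer cell lines were seeded in 1536-well plates, dosed by pin tool the next day, and fixed and stained after 5 days in one step with final 0.05% Triton X-100, 1% formaldehyde and 1 ug/ml Hoechst. Dosing was a single drug or a fixed anchor-drug dose plus five library-drug doses (not always all listed) in √10 steps, and values are medians of duplicate plates imaged at 4×.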
# BX 795 + Alpelisib = compound: O=C(NCCCNc1nc(Nc2cccc(NC(=O)N3CCCC3)c2)ncc1I)c1cccs1 [BX 795] + Cc1nc(NC(=O)N2CCC[C@H]2C(N)=O)sc1-c1ccnc(C(C)(C)C(F)(F)F)c1 [Alpelisib] (partner 2 µM)
# Method in brief: as §1
# BX 795 + Decitabine = compound: O=C(NCCCNc1nc(Nc2cccc(NC(=O)N3CCCC3)c2)ncc1I)c1cccs1 [BX 795] + Nc1ncn([C@H]2C[C@H](O)[C@@H](CO)O2)c(=O)n1 [Decitabine] (partner 2 µM)
# Method in brief: as §1
# BX 795 + Navitoclax = compound: O=C(NCCCNc1nc(Nc2cccc(NC(=O)N3CCCC3)c2)ncc1I)c1cccs1 [BX 795] + CC1(C)CCC(c2ccc(Cl)cc2)=C(CN2CCN(c3ccc(C(=O)NS(=O)(=O)c4ccc(N[C@H](CCN5CCOCC5)CSc5ccccc5)c(S(=O)(=O)C(F)(F)F)c4)cc3)CC2)C1 [Navitoclax] (partner 0.5 µM)
# Method in brief: as §1
# BX 795 + Tozasertib = compound: O=C(NCCCNc1nc(Nc2cccc(NC(=O)N3CCCC3)c2)ncc1I)c1cccs1 [BX 795] + Cc1cc(Nc2cc(N3CCN(C)CC3)nc(Sc3ccc(NC(=O)C4CC4)cc3)n2)n[nH]1 [Tozasertib] (partner 0.1 µM)
# Method in brief: as §1
Cell Line,relative viability (BX 795 + Bortezomib; first compound 0.04 µM),relative viability (BX 795 + Bortezomib; first compound 0.1265 µM),relative viability (BX 795 + Bortezomib; first compound 0.4 µM),relative viability (BX 795 + Bortezomib; first compound 1.265 µM),relative viability (BX 795 + Alpelisib; first compound 0.04 µM),relative viability (BX 795 + Alpelisib; first compound 0.1265 µM),relative viability (BX 795 + Alpelisib; first compound 0.4 µM),relative viability (BX 795 + Alpelisib; first compound 1.265 µM),relative viability (BX 795 + Decitabine; first compound 0.04 µM),relative viability (BX 795 + Decitabine; first compound 0.1265 µM),relative viability (BX 795 + Decitabine; first compound 0.4 µM),relative viability (BX 795 + Decitabine; first compound 1.265 µM),relative viability (BX 795 + Navitoclax; first compound 0.04 µM),relative viability (BX 795 + Navitoclax; first compound 0.1265 µM),relative viability (BX 795 + Navitoclax; first compound 0.4 µM),relative viability (BX 795 + Navitoclax; first compound 1.265 µM),relative viability (BX 795 + Tozasertib; first compound 0.04 µM),relative viability (BX 795 + Tozasertib; first compound 0.1265 µM),relative viability (BX 795 + Tozasertib; first compound 0.4 µM),relative viability (BX 795 + Tozasertib; first compound 1.265 µM)
201T,1.12,1.08,1.18,1.11,1.01,1.02,1.1,1.03,0.886,0.871,1,0.867,1.18,1.21,1.24,1.21,1.06,0.918,1.11,0.963
A549,,,,,0.761,0.731,0.6,0.267,0.332,0.289,0.329,0.282,1.19,1.24,1.47,0.739,,,,
A-427,0.972,0.964,1.02,0.866,1.1,1.1,1.1,1.03,0.588,0.588,0.545,0.516,0.97,1.02,1.01,0.788,0.227,0.148,0.179,0.136
ABC-1,0.392,0.299,0.332,0.291,1.17,1.25,0.911,0.764,1.03,,1.3,1.49,,,,,0.193,0.151,0.145,0.148
BEN,0.805,0.783,0.842,0.873,1.06,1.16,1.06,0.995,0.886,0.709,0.673,0.672,0.0771,0.0586,0.0606,0.0858,0.606,0.447,0.523,0.44
CAL-12T,0.954,0.929,1.04,0.623,1.12,1.5,1.29,0.285,,,,,1.08,1.23,1.25,0.497,0.323,0.288,0.298,0.263
COR-L23,1.1,1.02,0.916,0.979,0.882,0.838,0.98,0.356,0.53,0.42,0.516,0.319,1.15,1.02,1.02,0.524,0.201,0.186,0.168,0.111
COR-L 105,0.586,0.577,0.613,0.327,1.08,0.84,0.745,0.412,0.636,0.589,0.507,0.603,0.795,0.583,0.652,0.39,0.391,0.362,0.405,0.267
ChaGo-K-1,1.02,0.916,0.977,0.91,,,,,0.535,0.544,0.538,0.398,0.817,0.919,0.933,0.982,0.175,0.226,0.205,0.212
EKVX,1.15,1.09,0.99,0.886,0.841,0.933,0.808,0.837,0.356,0.336,0.382,0.377,0.703,1.02,0.851,0.896,0.38,0.471,0.358,0.331
EMC-BAC-2,1.08,1.08,1.13,1.06,0.766,0.795,0.715,0.464,1.02,1.03,0.962,0.736,1.18,1.24,1.24,0.906,0.277,0.362,0.258,0.175
EPLC-272H,1.02,,0.857,0.824,1,,0.905,0.93,0.356,0.472,0.374,0.305,1.14,,1.27,1.12,0.349,0.277,0.294,0.228
H3255,0.731,0.816,1.11,0.66,0.873,0.845,0.759,0.584,0.647,0.819,0.664,0.616,0.663,0.484,0.694,0.527,0.716,0.605,0.773,0.55
HARA,1.12,1.03,1.1,1.06,0.752,0.82,1.2,0.605,0.618,0.578,0.684,0.553,1.13,1.13,1.24,1.13,0.124,0.0907,0.0944,0.0873
HCC-15,0.969,1.02,0.99,0.778,0.865,0.877,0.959,0.665,0.585,0.646,0.684,0.448,0.751,0.7,0.756,0.53,0.444,0.359,0.482,0.246
HCC-44,0.818,0.929,1.1,0.772,0.742,0.865,0.85,0.543,0.952,0.983,1.07,1,0.872,1.05,1.02,0.708,0.934,1.05,0.581,0.351
HCC-78,0.735,0.487,0.438,0.41,0.406,0.337,0.39,0.303,0.913,0.664,0.825,0.653,0.857,0.926,0.792,0.718,0.472,0.317,0.345,0.386
